From patent US20250230193A1, “CYCLIC COMPOUND HAVING SELECTIVE KRAS INHIBITORY EFFECT ON HRAS AND NRAS” (CHUGAI SEIYAKU KABUSHIKI KAISHA, priority 2022, published 2025)
Where a SMILES comes first, the peptide text is derived from it. Bridges are numbered along the chain shown (N, C = ends). [ ]: non-standard residue; d: D form. The star is where a group is joined. hPhe(3-Cl-4-CF3) = N[C@@H](CCc1ccc(C(F)(F)F)c(Cl)c1)C(=O)O; NPrPhe(4-CF3) = CCCN[C@@H](Cc1ccc(C(F)(F)F)cc1)C(=O)O; NMeGly(cPent) = CN[C@H](C(=O)O)C1CCCC1; Hyp = O=C(O)[C@@H]1C[C@@H](O)CN1; NMeD = CN[C@@H](CC(=O)O)C(=O)O; NMeL = CN[C@@H](CC(C)C)C(=O)O; Morpholide = C1CN(*)CCO1; Ac5c = NC1(C(=O)O)CCCC1; Aze = O=C(O)[C@@H]1CCN1; Sar = CNCC(=O)O

Experiments:
[1] = biological target: GDP-bound NRAS wild-type protein (Homo sapiens, UniProt P01111); test: Binding to NRAS by surface plasmon resonance (SPR), Single Cycle Kinetics; conditions: SPR; for NRAS/KRAS (ratio of KD value for NRAS to KD value for KRAS) / NRAS/KRAS (ratio of KD value with respect to NRAS to KD value with respect to KRAS): GDP-bound NRAS wild-type vs GDP-bound KRAS wild-type
[2] = biological target: GDP-bound HRAS wild-type protein (Homo sapiens, UniProt P01112); test: Binding to HRAS by surface plasmon resonance (SPR), Single Cycle Kinetics; conditions: SPR; for HRAS/KRAS (ratio of KD value for HRAS to KD value for KRAS) / HRAS/KRAS (ratio of KD value with respect to HRAS to KD value with respect to KRAS): GDP-bound HRAS wild-type vs GDP-bound KRAS wild-type
Sequence of GDP-bound HRAS wild-type protein (P01112 whole entry): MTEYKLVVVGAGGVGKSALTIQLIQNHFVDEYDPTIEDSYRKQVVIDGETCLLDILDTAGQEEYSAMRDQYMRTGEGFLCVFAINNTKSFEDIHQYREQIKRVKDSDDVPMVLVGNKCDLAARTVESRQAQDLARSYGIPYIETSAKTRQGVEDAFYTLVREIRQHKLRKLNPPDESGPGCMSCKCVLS

Sequence of GDP-bound NRAS wild-type protein (P01111 whole entry): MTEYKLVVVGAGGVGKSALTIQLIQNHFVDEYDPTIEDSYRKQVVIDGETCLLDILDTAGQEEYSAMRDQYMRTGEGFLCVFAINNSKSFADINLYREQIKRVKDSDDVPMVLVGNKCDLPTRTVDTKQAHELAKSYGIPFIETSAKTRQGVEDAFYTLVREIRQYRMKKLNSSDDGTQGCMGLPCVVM

CCCN1C(=O)CN(C)C(=O)[C@@H]2CCN2C(=O)[C@H]([C@@H](C)CC)NC(=O)[C@H](CC(C)C)N(C)C(=O)C[C@@H](C(=O)N2CCOCC2)N(C)C(=O)[C@H](C2CCCC2)N(C)C(=O)C2(CCCC2)NC(=O)[C@@H]2C[C@@H](OC)CN2C(=O)[C@H](CCc2ccc(C(F)(F)F)c(Cl)c2)NC(=O)CN(C)C(=O)[C@@H]1Cc1ccc(C(F)(F)F)cc1 [PP0309] ([NMeL]I[Aze][Sar][NPrPhe(4-CF3)][Sar][hPhe(3-Cl-4-CF3)][Hyp](Me)[Ac5c][NMeGly(cPent)][NMeD]-Morpholide; lactam N-11)
NRAS/KRAS (ratio of KD for GDP-bound NRAS wild-type to KD for KRAS) ([1]; KD ratio NRAS/KRAS): B (a compound having 3 or more and less than 10 is denoted as B) | HRAS/KRAS (ratio of KD for GDP-bound HRAS wild-type to KD for KRAS) ([2]; KD ratio HRAS/KRAS): B (a compound having 3 or more and less than 10 is denoted as B)

CCCN(C)C(=O)[C@@H]1CC(=O)N(C)[C@@H](CCOC)C(=O)N[C@@H]([C@@H](C)CC)C(=O)N(C)CC(=O)N(C)[C@H]2C/C=C\CCN(C2=O)[C@@H](Cc2ccc(C(F)(F)F)cc2)C(=O)N(C)CC(=O)N[C@@H](CCc2ccc(C(F)(F)F)c(OC)c2)C(=O)N2C[C@@H](C)C[C@H]2C(=O)NC2(CC(C)(C)C2)C(=O)N(C)[C@@H](C2CCCC2)C(=O)N1C [PP2001]
NRAS/KRAS (ratio of KD value for NRAS to KD value for KRAS) ([1]; KD ratio): A (a compound having 10 or more and less than 20 is denoted as A) | HRAS/KRAS (ratio of KD value for HRAS to KD value for KRAS) ([2]; KD ratio): A (a compound having 10 or more and less than 20 is denoted as A)

CC[C@H](C)[C@@H]1NC(=O)[C@H](CC(C)C)N(C)C(=O)C[C@@H](C(=O)N(C)C)N(C)C(=O)[C@H](C2CCCC2)N(C)C(=O)C2(CCCC2)NC(=O)[C@@H]2C[C@@H](C)CN2C(=O)[C@H](CCc2cc(F)c(C(F)(F)F)c(F)c2)NC(=O)CN(C)C(=O)[C@H](Cc2ccc(C)cc2)N2CC/C=C\C[C@@H](C2=O)N(C)C(=O)CN(C)C1=O [PP2189]
NRAS/KRAS (ratio of KD value with respect to NRAS to KD value with respect to KRAS) [1]: A (a compound having 10 or more and less than 20 is denoted as A) | HRAS/KRAS (ratio of KD value with respect to HRAS to KD value with respect to KRAS) [2]: A (a compound having 10 or more and less than 20 is denoted as A)

CCO[C@@H]1C[C@H]2C(=O)NC3(CCC3)C(=O)N(C)[C@@H](C3CCCC3)C(=O)N(C)[C@H](C(=O)N(C)C)CC(=O)N(C)[C@@H](CC)C(=O)N[C@@H]([C@@H](C)CC)C(=O)N(C)CC(=O)N(C)[C@H]3CCCCCN(C3=O)[C@@H](Cc3ccc(F)cc3C)C(=O)N(C)CC(=O)N[C@@H](CCc3cc(F)c(C(F)(F)F)c(F)c3)C(=O)N2C1 [PP0911]
NRAS/KRAS (ratio of KD value with respect to NRAS to KD value with respect to KRAS) ([1]; KD ratio): B (a compound having 3 or more and less than 10 is denoted as B) | HRAS/KRAS (ratio of KD value with respect to HRAS to KD value with respect to KRAS) ([2]; KD ratio): B (a compound having 3 or more and less than 10 is denoted as B)

C#CC[C@H]1C(=O)N[C@@H]([C@@H](C)CC)C(=O)N(C)CC(=O)N(C)[C@H]2C/C=C\CCN(C2=O)[C@@H](Cc2ccc(C)cc2)C(=O)N(C)CC(=O)N[C@@H](CCc2ccc(C(F)(F)F)c(Cl)c2)C(=O)N2CC3(CC3)C[C@H]2C(=O)NC2(CC(C)(C)C2)C(=O)N(C)[C@@H](C2CCCC2)C(=O)N(C)[C@H](C(=O)N(C)C)CC(=O)N1C [PP2982]
NRAS/KRAS (ratio of KD value with respect to GDP-bound NRAS wild-type protein to KD value with respect to KRAS) ([1]; KD ratio NRAS/KRAS, GDP-bound wild-type proteins): A (a compound having 10 or more and less than 20 is denoted as A) | HRAS/KRAS (ratio of KD value with respect to GDP-bound HRAS wild-type protein to KD value with respect to KRAS) ([2]; KD ratio HRAS/KRAS, GDP-bound wild-type proteins): A (a compound having 10 or more and less than 20 is denoted as A)

CCC[C@H]1C(=O)N[C@@H]([C@@H](C)CC)C(=O)N2CCC[C@H]2C(=O)N(C)[C@H]2C/C=C\CCN(C2=O)[C@@H](Cc2ccc(C)cc2)C(=O)N(C)CC(=O)N[C@@H](CCc2ccc(C(F)(F)F)c(OC)c2)C(=O)N2C[C@@H](C)C[C@H]2C(=O)N(C)C2(CCC2)C(=O)N(C)[C@@H](C2CCCC2)C(=O)N(C)[C@H](C(=O)N(C)C)CC(=O)N1C [PP2368]
NRAS/KRAS (ratio of KD value with respect to NRAS to KD value with respect to KRAS) [1]: A (a compound having 10 or more and less than 20 is denoted as A) | HRAS/KRAS (ratio of KD value with respect to HRAS to KD value with respect to KRAS) [2]: A (a compound having 10 or more and less than 20 is denoted as A)

CCC[C@H]1C(=O)N[C@@H]([C@@H](C)CC)C(=O)N(C)CC(=O)N(C)[C@H]2C/C=C\CCN(C2=O)[C@@H](Cc2ccc(C)cc2)C(=O)N(C)CC(=O)N[C@@H](CCc2ccc(C(F)(F)F)c(OC)c2)C(=O)N2C[C@@H](C)C[C@H]2C(=O)NC2(CCC2)C(=O)N(C)[C@@H](C2CCCC2)C(=O)N(C)[C@H](C(=O)N(C)C)CC(=O)N1C [PP1857]
NRAS/KRAS (ratio of KD value for NRAS to KD value for KRAS) ([1]; KD ratio): A (a compound having 10 or more and less than 20 is denoted as A) | HRAS/KRAS (ratio of KD value for HRAS to KD value for KRAS) ([2]; KD ratio): B (a compound having 3 or more and less than 10 is denoted as B)

CCO[C@@H]1C[C@H]2C(=O)NC3(CCC3)C(=O)N(C)[C@@H](C3CCCC3)C(=O)N(C)[C@H](C(=O)N(C)C)CC(=O)N(C)[C@@H](Cc3cccc(Cl)c3)C(=O)N[C@@H]([C@@H](C)CC)C(=O)N(C)CC(=O)N(C)[C@H]3C/C=C\CCN(C3=O)[C@@H](Cc3ccc(C(F)(F)F)cc3)C(=O)N(C)CC(=O)N[C@@H](CCc3cc(F)c(C(F)(F)F)c(F)c3)C(=O)N2C1 [PP1127]
NRAS/KRAS (ratio of KD value with respect to NRAS to KD value with respect to KRAS) ([1]; KD ratio): AA (a compound having 20 or more is denoted as AA) | HRAS/KRAS (ratio of KD value with respect to HRAS to KD value with respect to KRAS) ([2]; KD ratio): A (a compound having 10 or more and less than 20 is denoted as A)
